{"source": "patent US11339163B2", "about": "“BRaf inhibitors and use thereof for treatment of cutaneous reactions” (Lutris Pharma Ltd., priority 2017, dated 2022)", "key": {"[1]": {"tested_on": "ERK phosphorylation in HEKa cells", "assay": "phospho-ERK in HEKa cells following EGFR inhibitors (Western blot)", "type": "cell-based, human", "protocol": "Human normal keratinocyte cells HEKa were purchased from Gibco Rhenium and seeded in 10 cm dishes (300,000 cells/dish) and incubated overnight at 37° C., 5% CO2. Next morning, the medium was replaced to a starvation medium for 2 hours and then the cells were treated for 2 additional hours with the test compounds. Post incubation, the cells were lyzed with RIPA and the protein extracts were analyzed by western blot for Phospho-ERK and total ERK. Untreated cells and 0.1% DMSO treated cells were used as negative control. HKGS growth factors was used as a positive control.\nWestern blot: 7.5 μg of total extract was loaded on 10% acrylamide gel. Following transfer, the membranes were blocked with TBST/5% skimmed milk and then incubated with Mouse anti Phospho-ERK (1:1000 in TBST 5% BSA, ON at 4° C.) and goat anti Mouse HRP (1:10,000 in TBST 5% BSA, 1-hour RT). The membranes were exposed using SuperSignal West Pico Chemiluminescent Substrate.\nThe HRP was then inactivated by incubating the membranes for 1 hour with 0.5% sodium azide Following washes and ECL exposure in order to ensure absence of signal, the membranes were re-blocked for 15 min with TBST/5% skimmed milk and then incubated with Rabbit anti total ERK2 (1:500 in TBST 5% BSA, ON at 4° C.), goat anti Rabbit HRP (1:5,000 in TBST 5% BSA, 1-hour RT) and finally exposed using the SuperSignal West Pico Chemiluminescent Substrate. The films were scanned and the signal were quantified using ImageJ software. The results were calculated as Phospho-ERK/total ERK.\nHKGS was used as a positive control."}, "[2]": {"tested_on": "BALB/c-3T3 mouse fibroblasts", "assay": "3T3 neutral red uptake phototoxicity assay", "type": "cell-based", "conditions": "mouse, 24 h", "protocol": "Therefore, the compounds of the present disclosure were screened for phototoxicity using the 3T3 natural red uptake assay.\nIn brief, BALB/c-3T3 mouse fibroblasts (originally obtained from ATCC) were seeded in 96-well plates at 12,000 cells per well, and grown for 24 hr. Test compounds and the positive control (chlorpromazine) were solubilized and serially diluted in DMSO. The negative control (histidine) was solubilized and diluted in HBSS. A dilution for all test articles was then made into HBSS at the final testing concentrations. At the start of the assay, the growth medium was removed from the plates and replaced with test agent dilution. Six replicates were used for each concentration. Cells were incubated in the dark with test article for 1 h, exposed to UVA light (2.5 J/cm2 over 18 min) and incubated 24 hrs. in the dark. A parallel non-irradiated plate was treated similarly, except it was stored in the dark, rather than illuminated.\nFor Neutral Red staining, medium was removed and fresh medium containing 25 μg/mL of Neutral Red (Sigma) was added. After three hours incubation, the cells were washed with PBS, and the cellular dye was solubilized with 1% acetic acid in 50% ethanol. Cellular Neutral Red was measured by its absorbance at 540 nm.\nData analysis: An IC50 (concentration that causes 50% reduction in viability) was calculated for each condition by linear interpolation.\nA Photo-Irritation Factor (PIF) was calculated: PIF=IC50(−Irr)/IC50(+Irr)\nPIF>5 indicates phototoxicity; 2<PIF<5 indicates probable phototoxicity; PIF<2 indicates no phototoxicity\nIn addition, the Mean Photo Effect (MPE) was calculated by comparison of the complete concentration-response curves. MPE is a weighted average of the difference in response of equivalent doses normalized by the shift in IC50.\nMPE>0.15 indicates phototoxicity; 0.1<MPE<0.15 indicates probable phototoxicity; MPE<0.1 indicates no phototoxicity."}, "[3]": {"target": "PAK2(h) (Homo sapiens, UniProt Q13177)", "sequence (Q13177 whole entry)": "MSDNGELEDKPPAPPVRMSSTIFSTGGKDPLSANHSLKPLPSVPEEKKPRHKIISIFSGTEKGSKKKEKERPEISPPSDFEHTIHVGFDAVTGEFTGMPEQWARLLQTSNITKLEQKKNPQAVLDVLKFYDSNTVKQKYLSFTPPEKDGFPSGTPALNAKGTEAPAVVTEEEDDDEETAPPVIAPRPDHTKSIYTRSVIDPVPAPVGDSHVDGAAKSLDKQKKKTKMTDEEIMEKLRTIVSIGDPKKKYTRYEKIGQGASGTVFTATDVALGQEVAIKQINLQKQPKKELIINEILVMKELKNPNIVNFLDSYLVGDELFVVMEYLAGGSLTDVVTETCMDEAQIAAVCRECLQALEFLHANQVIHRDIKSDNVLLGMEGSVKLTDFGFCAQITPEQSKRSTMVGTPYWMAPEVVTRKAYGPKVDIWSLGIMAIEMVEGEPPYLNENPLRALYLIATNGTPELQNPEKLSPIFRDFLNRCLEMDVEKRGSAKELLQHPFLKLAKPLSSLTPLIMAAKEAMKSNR", "assay": "KinaseProfiler kinase selectivity assay", "type": "biochemical", "protocol": "(§1) All compounds were prepared to 50× final assay concentration in 100% DMSO. This working stock of the compound was added to the assay well as the first component in the reaction, followed by the remaining components. In the standard KinaseProfiler™ service, there is no pre-incubation step between the compound and the kinase prior to initiation of the reaction. The positive control wells contain all components of the reaction, except the compound of interest; however, DMSO (at a final concentration of 2%) is included in these wells to control for solvent effects. The blank wells contain all components of the reaction, with a reference inhibitor replacing the compound of interest. This abolishes kinase activity and establishes the base-line (0% kinase activity remaining)."}, "[4]": {"target": "PI3 Kinase (p110α/p85α)(h) (Homo sapiens, UniProt P42336)", "sequence (P42336 whole entry)": "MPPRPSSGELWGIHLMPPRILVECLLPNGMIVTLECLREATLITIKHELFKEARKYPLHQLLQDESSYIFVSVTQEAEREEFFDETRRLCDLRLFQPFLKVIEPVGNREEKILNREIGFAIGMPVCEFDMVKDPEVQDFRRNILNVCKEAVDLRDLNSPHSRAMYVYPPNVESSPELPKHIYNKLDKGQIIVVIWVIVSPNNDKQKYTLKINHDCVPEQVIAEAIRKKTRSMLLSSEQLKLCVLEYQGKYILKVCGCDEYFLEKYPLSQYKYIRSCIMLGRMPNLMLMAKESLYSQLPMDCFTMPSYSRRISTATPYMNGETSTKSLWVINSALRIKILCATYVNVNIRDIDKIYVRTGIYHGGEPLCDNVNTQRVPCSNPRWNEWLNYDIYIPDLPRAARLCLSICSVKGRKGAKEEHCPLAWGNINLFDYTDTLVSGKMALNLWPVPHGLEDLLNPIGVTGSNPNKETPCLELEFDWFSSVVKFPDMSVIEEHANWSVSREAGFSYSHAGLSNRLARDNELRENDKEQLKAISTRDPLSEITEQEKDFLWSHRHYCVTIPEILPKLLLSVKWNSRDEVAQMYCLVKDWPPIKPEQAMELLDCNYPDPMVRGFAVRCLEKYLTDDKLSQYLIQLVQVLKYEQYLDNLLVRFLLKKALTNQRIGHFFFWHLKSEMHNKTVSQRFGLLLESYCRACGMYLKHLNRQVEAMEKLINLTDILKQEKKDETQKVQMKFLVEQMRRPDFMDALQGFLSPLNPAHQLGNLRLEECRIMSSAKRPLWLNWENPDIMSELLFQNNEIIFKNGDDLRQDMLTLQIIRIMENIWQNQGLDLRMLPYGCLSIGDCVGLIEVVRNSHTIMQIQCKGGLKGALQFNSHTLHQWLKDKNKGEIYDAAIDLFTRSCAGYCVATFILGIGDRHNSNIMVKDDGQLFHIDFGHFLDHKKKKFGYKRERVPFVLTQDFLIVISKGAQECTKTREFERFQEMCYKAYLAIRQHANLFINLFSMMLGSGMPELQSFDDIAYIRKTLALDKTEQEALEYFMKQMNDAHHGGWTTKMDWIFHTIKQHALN", "sequence (P27986 whole entry partner)": "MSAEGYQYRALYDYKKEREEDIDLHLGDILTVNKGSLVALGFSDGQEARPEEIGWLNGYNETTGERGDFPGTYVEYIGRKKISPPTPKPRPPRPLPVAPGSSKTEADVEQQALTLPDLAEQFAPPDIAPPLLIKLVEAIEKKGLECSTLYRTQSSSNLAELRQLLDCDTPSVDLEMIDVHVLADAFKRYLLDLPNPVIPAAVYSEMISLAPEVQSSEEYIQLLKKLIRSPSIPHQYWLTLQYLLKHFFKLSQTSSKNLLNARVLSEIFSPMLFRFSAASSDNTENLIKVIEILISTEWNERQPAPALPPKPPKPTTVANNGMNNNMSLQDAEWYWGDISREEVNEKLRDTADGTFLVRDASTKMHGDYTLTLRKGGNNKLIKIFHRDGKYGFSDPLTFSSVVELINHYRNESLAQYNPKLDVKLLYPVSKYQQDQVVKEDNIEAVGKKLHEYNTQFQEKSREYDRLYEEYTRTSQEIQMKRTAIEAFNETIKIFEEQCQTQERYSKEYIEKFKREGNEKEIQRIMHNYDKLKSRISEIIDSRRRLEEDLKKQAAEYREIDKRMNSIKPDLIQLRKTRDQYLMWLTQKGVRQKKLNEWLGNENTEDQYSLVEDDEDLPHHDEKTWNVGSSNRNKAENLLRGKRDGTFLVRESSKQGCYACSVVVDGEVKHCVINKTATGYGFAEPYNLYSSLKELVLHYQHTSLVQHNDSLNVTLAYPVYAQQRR", "assay": "KinaseProfiler kinase selectivity assay", "type": "biochemical", "protocol": "as §1"}, "[5]": {"target": "Aurora-A(h) (Homo sapiens, UniProt O14965)", "sequence (O14965 whole entry)": "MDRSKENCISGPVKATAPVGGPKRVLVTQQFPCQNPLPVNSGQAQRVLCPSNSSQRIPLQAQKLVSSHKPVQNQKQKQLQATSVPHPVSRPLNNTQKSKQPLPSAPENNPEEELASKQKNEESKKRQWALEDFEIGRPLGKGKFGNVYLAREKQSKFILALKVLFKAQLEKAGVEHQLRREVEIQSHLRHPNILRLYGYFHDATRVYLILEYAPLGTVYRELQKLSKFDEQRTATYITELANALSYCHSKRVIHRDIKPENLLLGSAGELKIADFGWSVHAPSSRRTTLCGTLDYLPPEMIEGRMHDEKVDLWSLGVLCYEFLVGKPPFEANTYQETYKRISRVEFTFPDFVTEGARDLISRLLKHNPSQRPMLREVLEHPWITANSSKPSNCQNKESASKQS", "assay": "KinaseProfiler kinase selectivity assay", "type": "biochemical", "protocol": "as §1"}, "[6]": {"assay": "ex vivo skin permeation and penetration, MedFlux-HT diffusion cells", "type": "in vitro ADME", "conditions": "topical composition comprising LUT014; skin sample; after 24 hours; citrate/phosphate buffer pH 4.0 with 0.01% Brij", "protocol": "An ex vivo permeation and penetration experiment for a topical composition comprising LUT-014 was conducted using MedFlux-HT™ continuous flow through diffusion cells. A skin sample was placed between donor and receptor compartments of the diffusion cell. The diffusion of the topical composition was measured using a citrate/phosphate buffer (pH 4.0) with 0.01% Brij as a receptor solution. LUT014 permeated into the skin sample was extracted using 90/10 acetonitrile/water as an extraction solvent."}}}
{"smiles": "Cc1ccc2c(Nc3cccc(OC(F)(F)F)c3)nccc2c1Nc1ncccc1-c1ncnc2[nH]cnc12", "note": "[LUT014]", "values": [{"measurement": "increase of phospho-ERK compared to the DMSO treated cells", "setting": "[1]", "value": "200-800%"}, {"measurement": "phospho-ERK when added to cells treated with Erlotinib", "setting": "[1]", "value": "increased"}, {"measurement": "phospho-ERK when added to cells treated with cetuximab", "setting": "[1]", "value": "increased"}, {"measurement": "phototoxicity (3T3 NRU), stated in words", "setting": "[2]", "value": "Lut014 is classified as non-phototoxic"}, {"measurement": "remaining activity at 0.01 µM", "setting": "[3]; Lut014 @ 0.01 μM", "value": 95, "unit": "%"}, {"measurement": "remaining activity at 1 µM", "setting": "[3]; Lut014 @ 1 μM", "value": 111, "unit": "%"}, {"measurement": "remaining activity at 0.01 µM", "setting": "[4]; Lut014 @ 0.01 μM", "value": 92, "unit": "%"}, {"measurement": "remaining activity at 1 µM", "setting": "[4]; Lut014 @ 1 μM", "value": 84, "unit": "%"}, {"measurement": "remaining activity at 0.01 µM", "setting": "[5]; Lut014 @ 0.01 μM", "value": 95, "unit": "%"}, {"measurement": "remaining activity at 1 µM", "setting": "[5]; Lut014 @ 1 μM", "value": 97, "unit": "%"}, {"measurement": "maximum accumulated level of LUT014 in the receptor solution", "setting": "[6]", "value": "less than 2 ng/mL"}]}
